Experiments:
HCT116 cells = experiment: Cell migration inhibition activity (wound-healing experiment); format: cell-based, human; settings: 10 μM, 48 hours, FIG. 9
Description: To evaluate cell migration inhibition effect of the compound of example 1, wound-healing experiment was performed. Particularly, an insert (Ibidi) was placed in the center of a 6-well cell culture dish and HCT116 cells (3×10^5 cell/ml) were loaded in each well by 70 μl. Medium was filled in around the insert. 24 hours later, the insert was carefully eliminated by using forceps, and the cells were washed with medium carefully not to be detached from the bottom of the culture dish. The control group was added with the diluted medium supplemented with DMSO. The experimental group was added with the diluted medium supplemented with 10 μM of the compound of example 1. 48 hours later, cell migration in each group was observed.

HIF-1 = experiment: Inhibition of HIF-1 mediated HRE transcription activity (pGL3-HRE-luciferase reporter); format: cell-based, human; settings: for HRE transcription activity (%): HCT116, hypoxic condition 12 hours
Description: To investigate the inhibition of HIF-1 transcription activity by the compound of the present invention, pGL3-basic vector (Promega) using luciferase as a reporter was cloned in multi-cloning site so as for HRE (Hypoxia Responsive Element, 5′-ACGTG-3′) existing in human VEGF gene to be repeated 6 times, resulting in the construction of pGL3-HRE-luciferase vector.
The human rectal cancer cell line HCT116 was seeded in a 48-well cell culture vessel. On the next day, the cells were transfected with 25 ng of pGL3-HRE-luciferase vector and 2.5 ng of Renilla control vector by using Polyfect reagent. After culturing the cells for 24 hours, the medium was replaced, followed by further culture for 4 hours. Then, the cells were treated with the compound prepared in each example at the concentration of 10 μM respectively, followed by culture in hypoxic condition (oxygen 1%, nitrogen 94%, carbon dioxide 5%) for 12 hours. Lysate was obtained by using RIPA buffer, by which hypoxia-induced luciferase activity was measured by using dual-luciferase assay system (Promega). Hypoxia-induced luciferase activity after the treatment of the compound prepared in example 1 or the compound prepared in comparative example 1 was measured by the same manner as described above except that the compound was treated at the concentrations of 0, 1, 3, 5, 10, and 20 μM. HIF-1 inhibition activity of each compound prepared in example 1 and comparative example 1 respectively was compared and the results are shown in Table 2 and FIG. 2.

HIF-1α = HIF-1α expression in tumor tissue (tumor tissue immune response experiment, Caki-1 model); format: in vivo, mouse; settings: Caki-1 tumor, optical microscope; FIG. 6
Description: In addition, to investigate whether or not the anticancer activity shown in experimental example 5 was attributed to the decrease of HIF-1α expression, tumor tissue immune response experiment was performed.

## COC(=O)c1cccc(NC(=O)/C=C/Oc2ccc(C34CC5CC(CC(C5)C3)C4)cc2)c1 [Example 1, (E)-3-[3-(4-Adamantan-1-yl-phenoxy)-acryloylamino]-benzoic acid methyl ester]
HCT116 cells
  cell migration: significantly reduced cell migration
HIF-1; 1 μM
  HRE transcription activity (%): 57.7%
HIF-1; 3 μM
  HRE transcription activity (%): 32.1%
HIF-1; 5 μM
  HRE transcription activity (%): 25.4%
HIF-1; 10 μM
  HRE transcription activity (%): 23.0%
HIF-1; 20 μM
  HRE transcription activity (%): 19.8%
HIF-1; cancer cell line HCT116, hypoxia
  inhibition effect on HRE transcription activity compared with the compound of comparative example 1: at least three times higher inhibition effect
HIF-1α
  HIF-1α expression in tumor tissue: significantly reduced
